Measurements published in ChEMBL document CHEMBL6109083, “Design, synthesis, and antitumor activity of NSDs inhibitors targeting lung squamous cell carcinoma” (Eur J Med Chem, 2025).

How the values were obtained:
Assay type in all cases: functional
Settings in all cases: time 3-6 day
NCI-H520 [1] = assay: Antiproliferative activity against human NCI-H520 cells assessed as inhibition of cell viability at 5 uM incubated for 3 to 6 days by CCK8 assay relative to control
NCI-H1703 [2] = assay: Antiproliferative activity against human NCI-H1703 cells assessed as inhibition of cell viability at 1 uM incubated for 3 to 6 days by CCK8 assay relative to control
NCI-H1703 [3] = assay: Antiproliferative activity against human NCI-H1703 cells assessed as inhibition of cell viability at 5 uM incubated for 3 to 6 days by CCK8 assay relative to control
HCC95 [4] = assay: Antiproliferative activity against human HCC95 cells assessed as inhibition of cell viability at 5 uM incubated for 3 to 6 days by CCK8 assay relative to control
HCC95 [5] = assay: Antiproliferative activity against human HCC95 cells assessed as inhibition of cell viability at 1 uM incubated for 3 to 6 days by CCK8 assay relative to control
NCI-H520 [6] = assay: Antiproliferative activity against human NCI-H520 cells assessed as inhibition of cell viability at 1 uM incubated for 3 to 6 days by CCK8 assay relative to control

`O=C1C(Cl)=C(NCCCc2ccncc2)C(=O)c2ncccc21` was tested, and the inhibition at 5 µM (NCI-H520 [1]) was 80.8%, the inhibition at 1 µM (NCI-H1703 [2]) was 12.2% and the inhibition at 5 µM (NCI-H1703 [3]) was 100%. For the same compound, the inhibition at 5 µM (HCC95 [4]) was 20.7%, the inhibition at 1 µM (HCC95 [5]) was 8.8% and the inhibition at 1 µM (NCI-H520 [6]) was 31.2%.

`O=C1C(NCCN2CCOCC2)=C(Cl)C(=O)c2ncccc21` was tested, and the inhibition at 5 µM (NCI-H520 [1]) was 71.2%, the inhibition at 1 µM (NCI-H1703 [2]) was 47.3% and the inhibition at 5 µM (NCI-H1703 [3]) was 99.8%. It also gave an inhibition at 5 µM (HCC95 [4]) of 57.4%, an inhibition at 1 µM (HCC95 [5]) of 4.8% and an inhibition at 1 µM (NCI-H520 [6]) of 25.9%.

With `COc1cccc(CCNC2=C(Cl)C(=O)c3cccnc3C2=O)c1` the inhibition at 5 µM (NCI-H520 [1]) was 56.2%, the inhibition at 1 µM (NCI-H1703 [2]) was 64.6% and the inhibition at 5 µM (NCI-H1703 [3]) was 97.1%. It also gave an inhibition at 5 µM (HCC95 [4]) of 42.9%, an inhibition at 1 µM (HCC95 [5]) of 33.5% and an inhibition at 1 µM (NCI-H520 [6]) of 40.4%.

For `Cc1nn(CCN2CCOCC2)c(=O)c2ccccc12`, the inhibition at 5 µM (NCI-H520 [1]) was 1.1%, the inhibition at 1 µM (NCI-H1703 [2]) was -9.3% and the inhibition at 5 µM (NCI-H1703 [3]) was -8.6%. It also gave an inhibition at 5 µM (HCC95 [4]) of 17.1%, an inhibition at 1 µM (HCC95 [5]) of 1.6% and an inhibition at 1 µM (NCI-H520 [6]) of 7.7%.

In the case of `CCN(CC)CCNC1=C(Cl)C(=O)c2cccnc2C1=O`, the inhibition at 5 µM (NCI-H520 [1]) is reported as 35.5%, the inhibition at 1 µM (NCI-H1703 [2]) is reported as 11.1% and the inhibition at 5 µM (NCI-H1703 [3]) is reported as 56.7%. For the same compound, the inhibition at 5 µM (HCC95 [4]) was 19.1%, the inhibition at 1 µM (HCC95 [5]) was 9.6% and the inhibition at 1 µM (NCI-H520 [6]) was 12.2%.

In the case of `CCn1cc(C(=O)NCCN2CCOCC2)c(=O)c2cc3c(cc21)OCO3`, the inhibition at 5 µM (NCI-H520 [1]) is reported as 12.4%, the inhibition at 1 µM (NCI-H1703 [2]) is reported as 21.5% and the inhibition at 5 µM (NCI-H1703 [3]) is reported as 21.2%. For the same compound, the inhibition at 5 µM (HCC95 [4]) was 7.8%, the inhibition at 1 µM (HCC95 [5]) was 22.4% and the inhibition at 1 µM (NCI-H520 [6]) was 20.2%.

With `CC(C)(C)OC(=O)N1CC2(CC(NC3=C(Cl)C(=O)c4cccnc4C3=O)C2)C1` the inhibition at 5 µM (NCI-H520 [1]) was 78%, the inhibition at 1 µM (NCI-H1703 [2]) was 21.7% and the inhibition at 5 µM (NCI-H1703 [3]) was 99.8%. It also gave an inhibition at 5 µM (HCC95 [4]) of 18.2%, an inhibition at 1 µM (HCC95 [5]) of 1.5% and an inhibition at 1 µM (NCI-H520 [6]) of 16%.

`O=C1C(Cl)=C(N2CCN(C3CC3)CC2)C(=O)c2ncccc21` gave an inhibition at 5 µM (NCI-H520 [1]) of 5.6%, an inhibition at 1 µM (NCI-H1703 [2]) of 12% and an inhibition at 5 µM (NCI-H1703 [3]) of 30.2%. It also gave an inhibition at 5 µM (HCC95 [4]) of 10.9%, an inhibition at 1 µM (HCC95 [5]) of 7.6% and an inhibition at 1 µM (NCI-H520 [6]) of 2.1%.

Compound `O=C1C(Cl)=C(N2CCC3(CC2)OCCO3)C(=O)c2ncccc21` has an inhibition at 5 µM (NCI-H520 [1]) of 8.6%, an inhibition at 1 µM (NCI-H1703 [2]) of 3.1% and an inhibition at 5 µM (NCI-H1703 [3]) of 6%. It also gave an inhibition at 5 µM (HCC95 [4]) of 9.1%, an inhibition at 1 µM (HCC95 [5]) of 4.6% and an inhibition at 1 µM (NCI-H520 [6]) of 6.5%.

Work on `CC(C)(C)OC(=O)N1CC2(C1)CN(C1=C(Cl)C(=O)c3cccnc3C1=O)C2` yielded an inhibition at 5 µM (NCI-H520 [1]) of 67.4%, an inhibition at 1 µM (NCI-H1703 [2]) of 10.1% and an inhibition at 5 µM (NCI-H1703 [3]) of 99.1%. For the same compound, the inhibition at 5 µM (HCC95 [4]) was 42.6%, the inhibition at 1 µM (HCC95 [5]) was 9.7% and the inhibition at 1 µM (NCI-H520 [6]) was 37.4%.

Compound `O=C1C(Cl)=C(Nc2ccc(Oc3ccccc3)cc2)C(=O)c2ncccc21` has an inhibition at 5 µM (NCI-H520 [1]) of 91.5%, an inhibition at 1 µM (NCI-H1703 [2]) of 14.3% and an inhibition at 5 µM (NCI-H1703 [3]) of 99.5%. It also gave an inhibition at 5 µM (HCC95 [4]) of 64.1%, an inhibition at 1 µM (HCC95 [5]) of 14.7% and an inhibition at 1 µM (NCI-H520 [6]) of 11.1%.

Work on `O=c1c2c(F)cccc2nnn1CCN1CCOCC1` yielded an inhibition at 5 µM (NCI-H520 [1]) of 20.3%, an inhibition at 1 µM (NCI-H1703 [2]) of 2.7% and an inhibition at 5 µM (NCI-H1703 [3]) of 18.5%. It also gave an inhibition at 5 µM (HCC95 [4]) of 1.9%, an inhibition at 1 µM (HCC95 [5]) of -4.7% and an inhibition at 1 µM (NCI-H520 [6]) of 8.6%.

`CCN(CC)CCNC1=C(Cl)C(=O)c2ncccc2C1=O` showed an inhibition at 5 µM (NCI-H520 [1]) of 88.2%, an inhibition at 1 µM (NCI-H1703 [2]) of 18.1% and an inhibition at 5 µM (NCI-H1703 [3]) of 98.2%. For the same compound, the inhibition at 5 µM (HCC95 [4]) was 42%, the inhibition at 1 µM (HCC95 [5]) was 18.7% and the inhibition at 1 µM (NCI-H520 [6]) was 7.5%.

Compound `CC(C)(C)OC(=O)N1CC2(C1)CN(C1=C(Cl)C(=O)c3ncccc3C1=O)C2` has an inhibition at 5 µM (NCI-H520 [1]) of 63.1%, an inhibition at 1 µM (NCI-H1703 [2]) of 27.3% and an inhibition at 5 µM (NCI-H1703 [3]) of 96.5%. It also gave an inhibition at 5 µM (HCC95 [4]) of 91.6%, an inhibition at 1 µM (HCC95 [5]) of 43.1% and an inhibition at 1 µM (NCI-H520 [6]) of 38.3%.
